Tests used:
DNA topoisomerase 1 = biological target: T1, DNA topoisomerase 1 (Homo sapiens, UniProt P11387); assay: Topoisomerase I Relaxation Assay; conditions: pH 7.8; 37 °C
T1 sequence (P11387 whole entry): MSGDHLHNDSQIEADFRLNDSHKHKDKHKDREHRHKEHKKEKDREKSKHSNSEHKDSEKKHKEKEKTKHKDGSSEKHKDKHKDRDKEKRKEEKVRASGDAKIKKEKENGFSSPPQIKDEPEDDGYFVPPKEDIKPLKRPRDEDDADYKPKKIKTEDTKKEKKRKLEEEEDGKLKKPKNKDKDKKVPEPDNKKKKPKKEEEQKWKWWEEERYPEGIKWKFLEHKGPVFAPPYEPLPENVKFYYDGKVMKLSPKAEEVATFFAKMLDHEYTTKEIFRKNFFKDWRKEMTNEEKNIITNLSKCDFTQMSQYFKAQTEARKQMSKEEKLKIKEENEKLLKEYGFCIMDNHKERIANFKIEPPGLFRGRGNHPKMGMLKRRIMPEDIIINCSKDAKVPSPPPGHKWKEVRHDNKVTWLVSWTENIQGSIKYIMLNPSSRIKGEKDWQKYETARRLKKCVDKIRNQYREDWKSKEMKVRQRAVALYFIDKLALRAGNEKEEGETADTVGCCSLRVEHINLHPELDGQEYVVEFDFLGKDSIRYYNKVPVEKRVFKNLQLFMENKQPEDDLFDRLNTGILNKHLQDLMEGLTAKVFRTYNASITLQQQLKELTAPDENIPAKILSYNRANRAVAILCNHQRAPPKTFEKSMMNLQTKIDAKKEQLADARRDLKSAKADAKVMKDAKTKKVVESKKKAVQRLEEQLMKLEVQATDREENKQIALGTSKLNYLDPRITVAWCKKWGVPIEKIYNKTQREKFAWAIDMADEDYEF
Experimental: Supercoiled pHOT1 DNA (0.5 μg) was incubated with four units of human topoisomerase I in relaxation buffer (10mM Tris-HCl (pH 7.8), 1mM EDTA, 0.15M NaCl, 0.1% BSA, 0.1 spermidine, 5% glycerol), in the presence of varying concentrations of the test compounds. Reactions were carried out at 37 °Cfor 1 h and then terminated by the addition of sodium dodecyl sulfate (SDS) to 0.25% and proteinase K to 50 μg/ml. The reaction mixture was subjected to electrophoresis through a 0.8% agarose gel containing […] in TAE buffer ([…] and 1mM EDTA). The gels were stained with ethidium bromide and photographed under UV light. For the quantitative determination of topoisomerase concentration activity, photographic negatives were scanned and the area representing supercoiled DNA, migrating as a single band at the bottom of the gel was measured using UVI-KS4000i gel documentation and analysis system (SyngenBiotech, Sacramento, CA).

[1] = biological target: DNA topoisomerase I (Homo sapiens); assay: Supercoiled pHOT1 DNA (0.5 μg) was incubated with four units of human topoisomerase I in relaxation buffer (10mM Tris-HCl (pH 7.8), 1mM EDTA, 0.15M NaCl, 0.1% BSA, 0.1 spermidine, 5% glycerol), in the presence of varying concentrations of the test compounds. Reactions were carried out at 37 °Cfor 1 h and then terminated by the addition o

Row | SMILES | IC50 (DNA topoisomerase 1) | IC50 [1]
1 | CCNC(=S)NNC(=O)C1CCNCC1 [DNA topoisomerase inhibitor, 8] | > 350 µM | > 350 µM
2 | O=C(NNC(=S)Nc1ccc(Br)cc1)C1CCNCC1 [DNA topoisomerase inhibitor, 6] | 250 µM | 250 µM
3 | COc1cc([C@@H]2c3cc4c(cc3[C@@H](O[C@@H]3O[C@@H]5CO[C@@H](C)O[C@H]5[C@H](O)[C@H]3O)[C@H]3COC(=O)[C@H]23)OCO4)cc(OC)c1O [4'-Demethylepipodophyllotoxin 9-(4,6-O-(R)-ethylidene-beta-D-glucopyranoside)] | > 350 µM | 
4 | CCc1ccc(NC(=S)NNC(=O)C2CCNCC2)cc1 [DNA topoisomerase inhibitor, 7] | > 350 µM | > 350 µM
5 | O=C(NNC(=S)Nc1ccccc1)C1CCNCC1 [DNA topoisomerase inhibitor, 3] | 250 µM | 250 µM

Further lines, results first:

Row | IC50 (DNA topoisomerase 1) | IC50 [1] | SMILES
6 | 100 µM | 50 µM | O=C(NC(=S)NNC(=O)c1cc2ccccc2[nH]1)c1ccccc1 [DNA topoisomerase inhibitor, 2]
7 | 100 µM | 50 µM | Cc1nc[nH]c1C(=O)NNC(=S)NC(=O)c1ccccc1 [DNA topoisomerase inhibitor, 1]
8 | 250 µM | 250 µM | O=C(NNC(=S)Nc1ccc(I)cc1)C1CCNCC1 [DNA topoisomerase inhibitor, 5]
9 | 250 µM | 250 µM | COc1ccc(NC(=S)NNC(=O)C2CCNCC2)cc1 [DNA topoisomerase inhibitor, 4]

Source: BindingDB's records for doi:10.3109/14756366.2013.768987 (Medical University, 2014)
